Measurements from patent US9346815B2, “5-chloro-2-difluoromethoxyphenyl pyrazolopyrimidine compounds, compositions and methods of use thereof” (Genentech, Inc., priority 2014, dated 2016).
pEC50, pKi: −log10 of the molar value. Where two headings read alike, the source gives them in different places.

Experiments:
[1] = molecular target: isolated recombinant JAK1 kinase domain (Homo sapiens (Human), UniProt P23458); assay: JAK1 enzyme assay (Caliper LabChip, peptide phosphorylation); type: biochemical; conditions: isolated recombinant JAK1 kinase domain, 25 μM ATP
Sequence of isolated recombinant JAK1 kinase domain (P23458 875-1153): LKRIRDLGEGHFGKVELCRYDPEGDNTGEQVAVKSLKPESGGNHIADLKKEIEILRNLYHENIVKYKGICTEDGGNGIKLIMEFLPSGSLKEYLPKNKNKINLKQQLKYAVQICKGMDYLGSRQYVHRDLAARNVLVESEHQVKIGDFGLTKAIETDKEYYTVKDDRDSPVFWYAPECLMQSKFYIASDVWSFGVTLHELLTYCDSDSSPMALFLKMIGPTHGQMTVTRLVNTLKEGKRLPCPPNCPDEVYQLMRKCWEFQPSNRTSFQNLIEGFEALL

[2] = molecular target: isolated recombinant JAK2 kinase domain (Homo sapiens (Human), UniProt O60674); assay: JAK2 enzyme assay (Caliper LabChip, peptide phosphorylation); type: biochemical; conditions: 25 μM ATP
Sequence of isolated recombinant JAK2 kinase domain (O60674 849-1124): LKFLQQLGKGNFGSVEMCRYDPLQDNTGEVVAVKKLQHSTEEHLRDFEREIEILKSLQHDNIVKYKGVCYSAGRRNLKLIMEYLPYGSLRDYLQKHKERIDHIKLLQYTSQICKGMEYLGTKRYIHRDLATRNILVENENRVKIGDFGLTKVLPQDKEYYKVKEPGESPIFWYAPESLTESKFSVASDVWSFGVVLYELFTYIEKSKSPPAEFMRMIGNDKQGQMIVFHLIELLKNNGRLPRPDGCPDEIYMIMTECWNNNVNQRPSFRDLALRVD

[3] = tested on: JAK1-dependent STAT6 phosphorylation downstream of IL-13 stimulation in TF-1 human erythroleukemia cells; assay: JAK1 pathway assay in TF-1 cells (IL-13-pSTAT6, MSD); type: cell-based; conditions: read-out: IL13-pSTAT6 EC50_TF-1
Method in brief: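 BEAS-2B: 1 h, complete growth medium, 100,000 cells/well. TF-1: 30 min, serum-free OptiMEM after overnight GM-CSF starvation, 300,000 cells/well. EC50 reported.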

pKi [1] | pKi [2] | pEC50 ([3]; TF-1 cells) | pEC50 ([3]; Homo sapiens, TF-1, TF-1 cells) | SMILES
9.27 | 9.66 | 8.17 |  | CN1C[C@@H]2CN(C(=O)Cn3cc(NC(=O)c4cnn5cccnc45)c(-c4cc(Cl)ccc4OC(F)F)n3)C[C@]2(c2ccccc2)C1 [Example 44, N-[1-[2-[(3aR,6aR)-2-methyl-3a-phenyl-3,4,6,6a-tetrahydro-1H-pyrrolo[3,4-c]pyrrol-5-yl]-2-oxo-ethyl]-3-[5-chloro-2-(difluoromethoxy)phenyl]pyrazol-4-yl]pyrazolo[1,5-a]pyrimidine-3-carboxamide]
9.24 | 9.15 |  | 8.09 | O=C(Nc1cn(CC(=O)N2C[C@H]3CN(CC4(O)CCCCC4)C[C@H]3C2)nc1-c1cc(Cl)ccc1OC(F)F)c1cnn2cccnc12 [Example 46, N-[1-[2-[(3aS,6aR)-2-[(1-hydroxycyclohexyl)methyl]-1,3,3a,4,6,6a-hexahydropyrrolo[3,4-c]pyrrol-5-yl]-2-oxo-ethyl]-3-[5-chloro-2-(difluoromethoxy)phenyl]pyrazol-4-yl]pyrazolo[1,5-a]pyrimidine-3-carboxamide]
9.48 | 9.27 |  | 7.96 | N#CC1(CN2C[C@@H]3CN(C(=O)Cn4cc(NC(=O)c5cnn6cccnc56)c(-c5cc(Cl)ccc5OC(F)F)n4)C[C@@H]3C2)CCCCC1 [Example 47, N-[1-[2-[(3aS,6aR)-2-[(1-cyanocyclohexyl)methyl]-1,3,3a,4,6,6a-hexahydropyrrolo[3,4-c]pyrrol-5-yl]-2-oxo-ethyl]-3-[5-chloro-2-(difluoromethoxy)phenyl]pyrazol-4-yl]pyrazolo[1,5-a]pyrimidine-3-carboxamide]
9.30 | 9.02 |  | 7.95 | CN1CC[C@@H]2CN(C(=O)Cn3cc(NC(=O)c4cnn5cccnc45)c(-c4cc(Cl)ccc4OC(F)F)n3)C[C@@H]2C1 [Example 49, N-[1-[2-[(3aS,7aS)-5-methyl-3,3a,4,6,7,7a-hexahydro-1H-pyrrolo[3,4-c]pyridin-2-yl]-2-oxo-ethyl]-3-[5-chloro-2-(difluoromethoxy)phenyl]pyrazol-4-yl]pyrazolo[1,5-a]pyrimidine-3-carboxamide]
9.00 | 9.13 |  | 7.49 | CC(C)(O)CCN1C[C@@H]2CN(C(=O)Cn3cc(NC(=O)c4cnn5cccnc45)c(-c4cc(Cl)ccc4OC(F)F)n3)C[C@@H]2C1 [Example 50, N-[1-[2-[(3aR,6aS)-2-(3-hydroxy-3-methyl-butyl)-1,3,3a,4,6,6a-hexahydropyrrolo[3,4-c]pyrrol-5-yl]-2-oxo-ethyl]-3-[5-chloro-2-(difluoromethoxy)phenyl]pyrazol-4-yl]pyrazolo[1,5-a]pyrimidine-3-carboxamide]
8.96 | 8.97 |  | 7.11 | O=C(Nc1cn(CC(=O)N2C[C@H]3CN(CCCOC(=O)N4CCOCC4)C[C@H]3C2)nc1-c1cc(Cl)ccc1OC(F)F)c1cnn2cccnc12 [Example 51, 3-[(3aR,6aS)-5-[2-[3-[5-chloro-2-(difluoromethoxy)phenyl]-4-(pyrazolo[1,5-a]pyrimidine-3-carbonylamino)pyrazol-1-yl]acetyl]-1,3,3a,4,6,6a-hexahydropyrrolo[3,4-c]pyrrol-2-yl]propyl morpholine-4-carboxylate]
9.21 | 8.91 |  | 7.96 | CN1CC[C@H]2CN(C(=O)Cn3cc(NC(=O)c4cnn5cccnc45)c(-c4cc(Cl)ccc4OC(F)F)n3)C[C@H]2C1 [Example 53, N-[1-[2-[(3aR,7aR)-5-methyl-3,3a,4,6,7,7a-hexahydro-1H-pyrrolo[3,4-c]pyridin-2-yl]-2-oxo-ethyl]-3-[5-chloro-2-(difluoromethoxy)phenyl]pyrazol-4-yl]pyrazolo[1,5-a]pyrimidine-3-carboxamide]
9.12 | 9.17 |  | 7.82 | O=C(Nc1cn(CC(=O)N2C[C@H]3CN(CCCN4C(=O)Cc5ccccc54)C[C@H]3C2)nc1-c1cc(Cl)ccc1OC(F)F)c1cnn2cccnc12 [Example 54, N-[1-[2-[(3aR,6aS)-2-[3-(2-oxoindolin-1-yl)propyl]-1,3,3a,4,6,6a-hexahydropyrrolo[3,4-c]pyrrol-5-yl]-2-oxo-ethyl]-3-[5-chloro-2-(difluoromethoxy)phenyl]pyrazol-4-yl]pyrazolo[1,5-a]pyrimidine-3-carboxamide]
9.07 | 9.14 |  | 7.68 | O=C(Nc1cn(CC(=O)N2C[C@H]3CN(CCCOC(=O)C4CCC4)C[C@H]3C2)nc1-c1cc(Cl)ccc1OC(F)F)c1cnn2cccnc12 [Example 55, 3-[(3aS,6aR)-5-[2-[3-[5-chloro-2-(difluoromethoxy)phenyl]-4-(pyrazolo[1,5-a]pyrimidine-3-carbonylamino)pyrazol-1-yl]acetyl]-1,3,3a,4,6,6a-hexahydropyrrolo[3,4-c]pyrrol-2-yl]propyl cyclobutanecarboxylate]
9.22 | 9.48 |  | 7.59 | Nc1nn2cccnc2c1C(=O)Nc1cn(CC(=O)N2C[C@H]3CN(CC4CCC(F)(F)CC4)C[C@H]3C2)nc1-c1cc(Cl)ccc1OC(F)F [Example 58, N-[1-[2-[(3aS,6aR)-2-[(4,4-difluorocyclohexyl)methyl]-1,3,3a,4,6,6a-hexahydropyrrolo[3,4-c]pyrrol-5-yl]-2-oxo-ethyl]-3-[5-chloro-2-(difluoromethoxy)phenyl]pyrazol-4-yl]-2-amino-pyrazolo[1,5-a]pyrimidine-3-carboxamide]
8.96 | 9.15 |  | 7.34 | O=C(Nc1cn(CC(=O)N2C[C@H]3CN(CCOCc4ccc(Cl)cc4)C[C@H]3C2)nc1-c1cc(Cl)ccc1OC(F)F)c1cnn2cccnc12 [Example 60, N-[1-[2-[(3aR,6aS)-2-[2-[(4-chlorophenyl)methoxy]ethyl]-1,3,3a,4,6,6a-hexahydropyrrolo[3,4-c]pyrrol-5-yl]-2-oxo-ethyl]-3-[5-chloro-2-(difluoromethoxy)phenyl]pyrazol-4-yl]pyrazolo[1,5-a]pyrimidine-3-carboxamide]
9.27 | 9.16 |  | 8.03 | CN(C)C1CCN(C(=O)Cn2cc(NC(=O)c3cnn4cccnc34)c(-c3cc(Cl)ccc3OC(F)F)n2)C1 (stereo not drawn) [Example 65, N-[3-[5-chloro-2-(difluoromethoxy)phenyl]-1-[2-[3-(dimethylamino)pyrrolidin-1-yl]-2-oxo-ethyl]pyrazol-4-yl]pyrazolo[1,5-a]pyrimidine-3-carboxamide]
9.13 | 8.77 |  | 7.87 | COCCN(C)C1CCN(C(=O)Cn2cc(NC(=O)c3cnn4cccnc34)c(-c3cc(Cl)ccc3OC(F)F)n2)CC1 [Example 68, N-[3-[5-chloro-2-(difluoromethoxy)phenyl]-1-[2-[4-[2-methoxyethyl(methyl)amino]-1-piperidyl]-2-oxo-ethyl]pyrazol-4-yl]pyrazolo[1,5-a]pyrimidine-3-carboxamide]
9.07 | 8.61 |  | 7.69 | O=C(Nc1cn(CC(=O)N2CCC(N3CCCC3)CC2)nc1-c1cc(Cl)ccc1OC(F)F)c1cnn2cccnc12 [Example 69, N-[3-[5-chloro-2-(difluoromethoxy)phenyl]-1-[2-oxo-2-(4-pyrrolidin-1-yl-1-piperidyl)ethyl]pyrazol-4-yl]pyrazolo[1,5-a]pyrimidine-3-carboxamide]
9.17 | 8.62 |  | 7.79 | CN(C)CC1CCN(C(=O)Cn2cc(NC(=O)c3cnn4cccnc34)c(-c3cc(Cl)ccc3OC(F)F)n2)CC1 [Example 70, N-[3-[5-chloro-2-(difluoromethoxy)phenyl]-1-[2-[4-[(dimethylamino)methyl]-1-piperidyl]-2-oxo-ethyl]pyrazol-4-yl]pyrazolo[1,5-a]pyrimidine-3-carboxamide]
8.93 | 8.39 |  | 8.14 | CN(C)C[C@@H]1CCCN(C(=O)Cn2cc(NC(=O)c3cnn4cccnc34)c(-c3cc(Cl)ccc3OC(F)F)n2)C1 [Example 72, N-[3-[5-chloro-2-(difluoromethoxy)phenyl]-1-[2-[(3S)-3-[(dimethylamino)methyl]-1-piperidyl]-2-oxo-ethyl]pyrazol-4-yl]pyrazolo[1,5-a]pyrimidine-3-carboxamide]
9.01 | 8.62 |  | 7.41 | CN(C)CC1(O)CCN(C(=O)Cn2cc(NC(=O)c3cnn4cccnc34)c(-c3cc(Cl)ccc3OC(F)F)n2)CC1 [Example 74, N-[3-[5-chloro-2-(difluoromethoxy)phenyl]-1-[2-[4-[(dimethylamino)methyl]-4-hydroxy-1-piperidyl]-2-oxo-ethyl]pyrazol-4-yl]pyrazolo[1,5-a]pyrimidine-3-carboxamide]
9.18 | 9.21 |  | 7.10 | CCNC1CCN(C(=O)Cn2cc(NC(=O)c3c(N)nn4cccnc34)c(-c3cc(Cl)ccc3OC(F)F)n2)CC1 [Example 75, 2-amino-N-[3-[5-chloro-2-(difluoromethoxy)phenyl]-1-[2-[4-(ethylamino)-1-piperidyl]-2-oxo-ethyl]pyrazol-4-yl]pyrazolo[1,5-a]pyrimidine-3-carboxamide]
9.22 | 9.29 |  | 6.68 | Nc1nn2cccnc2c1C(=O)Nc1cn(CC(=O)N2CCC(N3CC[C@H](O)C3)CC2)nc1-c1cc(Cl)ccc1OC(F)F [Example 77, 2-amino-N-[3-[5-chloro-2-(difluoromethoxy)phenyl]-1-[2-[4-[(3S)-3-hydroxypyrrolidin-1-yl]-1-piperidyl]-2-oxo-ethyl]pyrazol-4-yl]pyrazolo[1,5-a]pyrimidine-3-carboxamide]
